{
  "source": "patent US20090175803A1",
  "about": "(priority 2008, published 2009)",
  "origin": "cited, not measured here",
  "key": {"[1]": {"test_system": "carcinogen-induced preneoplastic lesions", "settings": "mouse mammary organ culture"}, "[2]": {"test_system": "PGE2 production from LPS-stimulated human peripheral blood mononuclear cells", "settings": "LPS-stimulated human PBMC"}, "PPARA": {"target": "T1, PPARA (Homo sapiens, UniProt Q07869)", "T1 sequence (Q07869 1-468)": "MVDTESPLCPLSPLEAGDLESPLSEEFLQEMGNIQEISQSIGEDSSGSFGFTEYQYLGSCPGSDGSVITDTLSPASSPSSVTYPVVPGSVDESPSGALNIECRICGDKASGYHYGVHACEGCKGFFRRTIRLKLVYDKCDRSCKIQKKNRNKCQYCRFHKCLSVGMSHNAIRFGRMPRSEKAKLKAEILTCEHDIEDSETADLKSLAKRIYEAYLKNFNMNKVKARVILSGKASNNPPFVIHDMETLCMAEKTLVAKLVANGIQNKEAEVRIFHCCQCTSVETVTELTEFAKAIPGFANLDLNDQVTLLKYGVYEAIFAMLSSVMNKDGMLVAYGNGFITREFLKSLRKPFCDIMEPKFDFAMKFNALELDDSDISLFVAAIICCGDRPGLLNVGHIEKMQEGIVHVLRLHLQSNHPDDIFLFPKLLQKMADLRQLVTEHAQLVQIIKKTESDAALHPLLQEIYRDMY"}, "[3]": {"settings": "peroxyl-radical scavenging"}},
  "data": [
    {"molecule": "COc1cc(/C=C/c2ccc(O)cc2)cc(OC)c1", "note": "[Pterostilbene, 4-[(E)-2-(3,5-dimethoxyphenyl)ethenyl]phenol]", "values": [
      {"measurement": "inhibition of carcinogen-induced preneoplastic lesions", "setting": "[1]", "value": "significant inhibition"},
      {"measurement": "blood glucose", "setting": "animal studies", "value": "can lower blood glucose"},
      {"measurement": "lipid and glucose lowering effects", "setting": "in vivo studies", "value": "possesses lipid and glucose lowering effects"},
      {"measurement": "cell proliferation and apoptosis", "setting": "human gastric cancer", "value": "inhibit cell proliferation and induce apopotosis in a concentration- and time-dependent manner"},
      {"measurement": "PGE2 production", "setting": "[2]", "value": "inhibited PGE2 production"},
      {"measurement": "PPARA agonism", "setting": "PPARA", "value": "acts as a PPARA agonist"},
      {"measurement": "total reactive antioxidant potential", "setting": "[3]", "value": "237 ± 58", "unit": "µM"}
    ]}
  ]
}
